Data as given in ChEMBL document CHEMBL4229383, “Antiproliferative efficacy of curcumin mimics through microtubule destabilization” (Eur J Med Chem, 2018).
Activity calls are given as the source filed them. The calls are words filed in the database; no cut-off is given here.

What was measured:
A-431 = assay: Cytotoxicity against human A431 cells preincubated for 4 hrs followed by incubation in compound free media for 24 hrs by MTT assay; type: functional, cell-based
MCF7 = assay: Cytotoxicity against human MCF7 cells preincubated for 4 hrs followed by incubation in compound free media for 24 hrs by MTT assay; type: functional, cell-based
DLD-1 = assay: Cytotoxicity against human DLD1 cells preincubated for 4 hrs followed by incubation in compound free media for 24 hrs by MTT assay; type: functional, cell-based
WRL68 = assay: Cytotoxicity against human WRL68 cells preincubated for 4 hrs followed by incubation in compound free media for 24 hrs by MTT assay; type: functional, cell-based
A549 = assay: Cytotoxicity against human A549 cells preincubated for 4 hrs followed by incubation in compound free media for 24 hrs by MTT assay; type: functional, cell-based
[1] = Inhibition of porcine brain tubulin polymerization measured every min for 1 hr; design: species or system Sus scrofa
Sus scrofa = organism: Sus scrofa; assay: Inhibition of porcine brain tubulin polymerization at 20 uM measured every min for 1 hr
Mus musculus [2] = assay: Toxicity in Swiss mouse implanted with mouse EAC cells assessed as body weight at 20 mg/kg, ip measured on day 5 post dose (reference value: 26.33g); type: organism-based; conditions: in vivo
Mus musculus [3] = assay: Toxicity in Swiss mouse implanted with mouse EAC cells assessed as body weight at 20 mg/kg, ip measured on day 1 post dose (reference value: 22g); type: organism-based; conditions: in vivo
Ehrlich [4] = assay: Antitumor activity against mouse EAC cells implanted in Swiss mouse assessed as solid tumor growth inhibition at 22 mg/kg, ip from day 1 to 9 and measured on day 13 post dose relative to control; type: functional; conditions: read-out: TGI
Mus musculus [5] = assay: Toxicity in Swiss mouse implanted with mouse EAC cells assessed as body weight at 20 mg/kg, ip measured on day 9 post dose (reference value: 30.55g); type: organism-based; conditions: in vivo
Ehrlich [6] = assay: Antitumor activity against mouse EAC cells implanted in Swiss mouse assessed as tumor growth inhibition at 20 mg/kg, ip from day 1 to 9 and measured on day 12 post dose relative to control; type: functional; conditions: read-out: TGI
Mus musculus [7] = assay: Toxicity in Swiss mouse implanted with mouse EAC cells assessed as body weight at 20 mg/kg, ip measured on day 12 post dose (reference value: 32.5g); type: organism-based; conditions: in vivo
Mus musculus [8] = assay: Toxicity in Swiss mouse implanted with mouse EAC cells assessed as body weight at 20 mg/kg, ip measured on day 12 post dose (reference value: 35.5g); type: organism-based; conditions: in vivo
Mus musculus [9] = assay: Toxicity in Swiss mouse implanted with mouse EAC cells assessed as body weight at 20 mg/kg, ip measured on day 5 post dose (reference value: 23.7g); type: organism-based; conditions: in vivo
Mus musculus [10] = assay: Toxicity in Swiss mouse implanted with mouse EAC cells assessed as body weight at 20 mg/kg, ip measured on day 9 post dose (reference value: 28.66g); type: organism-based; conditions: in vivo
Mus musculus [11] = assay: Toxicity in Swiss mouse implanted with mouse EAC cells assessed as body weight at 20 mg/kg, ip measured on day 1 post dose (reference value: 24.77g); type: organism-based; conditions: in vivo
Mus musculus [12] = assay: Toxicity in Swiss mouse implanted with mouse EAC solid tumor cells assessed as body weight at 22 mg/kg, ip from day 1 to 9 and measured on day 13 post dose (reference value: 26.9g); type: organism-based; conditions: in vivo
Mus musculus [13] = assay: Toxicity in Swiss mouse implanted with mouse EAC solid tumor cells assessed as body weight at 22 mg/kg, ip measured on day 1 post dose (reference value: 25 g); type: organism-based; conditions: in vivo
Mus musculus [14] = assay: Toxicity in Swiss mouse implanted with mouse EAC solid tumor cells assessed as body weight at 22 mg/kg, ip measured on day 9 post dose (reference value: 26.7 g); type: organism-based; conditions: in vivo
Mus musculus [15] = assay: Toxicity in Swiss mouse implanted with mouse EAC solid tumor cells assessed as body weight at 22 mg/kg, ip measured on day 5 post dose (reference value: 26.7 g); type: organism-based; conditions: in vivo
Mus musculus [16] = assay: Toxicity in Swiss mouse implanted with mouse EAC cells assessed as mortality at 20 mg/kg, ip from day 1 to 9 and measured on day 12 post dose; type: organism-based; conditions: in vivo

Compound: O=C(/C=C/c1ccc(O)cc1)CC(=O)/C=C/c1ccc(O)cc1 [BISDEMETHOXYCURCUMIN]
- IC50 (A-431): > 100 µM
- IC50 (MCF7): 48.9 µM
- IC50 (DLD-1): > 40 µM
- IC50 (WRL68): 45.4 µM

Compound: COc1cc(/C=C/C(=O)CC(=O)/C=C/c2ccc(O)cc2)ccc1O
- IC50 (A-431): > 100 µM
- IC50 (MCF7): 92.1 µM
- IC50 (DLD-1): > 40 µM
- IC50 (A549): 28.2 µM
- IC50 (WRL68): 26.3 µM

Compound: COc1cc([C@@H]2c3cc4c(cc3[C@H](O)[C@H]3COC(=O)[C@H]23)OCO4)cc(OC)c1OC [PODOFILOX]
- IC50 (A-431): > 100 µM
- IC50 (MCF7): 4.16 µM
- IC50 (DLD-1): 0.11 µM
- IC50 [1]: 0.78 µM
- IC50 (A549): 5.61 µM
- IC50 (WRL68): 3.02 µM

Compound: COc1cc(/C=C/C(=O)CC(=O)/C=C/c2ccc(O)c(OC)c2)ccc1O [CURCUMIN]
- IC50 (A-431): > 100 µM
- IC50 (MCF7): 22.1 µM
- IC50 (DLD-1): > 40 µM
- IC50 [1]: 5.12 µM
- IC50 (A549): 43.9 µM
- inhibition (Sus scrofa): Active
- IC50 (WRL68): 27.8 µM

Compound: O=C(/C=C/c1ccc(/C=C/C(=O)c2ccc3c(c2)OCO3)cc1)c1ccc2c(c1)OCO2
- IC50 (A-431): > 100 µM
- IC50 (MCF7): 30.6 µM
- IC50 (DLD-1): > 40 µM
- IC50 (A549): > 100 µM
- IC50 (WRL68): 80.1 µM

Compound: O=c1[nH]cc(F)c(=O)[nH]1 [FLUOROURACIL]
- Activity (Mus musculus [2]): 25.85 g
- Activity (Mus musculus [3]): 22.85 g
- inhibition in vivo at 22 mg/kg (Ehrlich [4]): 51%
- Activity (Mus musculus [5]): 24.57 g
- inhibition in vivo at 20 mg/kg (Ehrlich [6]): 96.4 to 96.8%
- Activity (Mus musculus [7]): 21.42 g
- Activity (Mus musculus [8]): 24.14 g
- Activity (Mus musculus [9]): 22.57 g
- Activity (Mus musculus [10]): 21.71 g
- Activity (Mus musculus [11]): 25.85 g
- Activity (Mus musculus [12]): 24.85 g
- Activity (Mus musculus [13]): 26.42 g
- Activity (Mus musculus [14]): 24.71 g
- Activity (Mus musculus [15]): 25.14 g
- Activity (Mus musculus [16]): Non-Toxic

Compound: O=C(/C=C/c1ccc2c(c1)OCO2)c1cccc(C(=O)/C=C/c2ccc3c(c2)OCO3)c1
- IC50 (A-431): 10 µM
- IC50 (MCF7): > 100 µM
- IC50 (DLD-1): 16.5 µM
- IC50 (A549): 18.7 µM
- IC50 (WRL68): > 100 µM

Compound: CC/C(=C(\c1ccccc1)c1ccc(OCCN(C)C)cc1)c1ccccc1 [TAMOXIFEN]
- IC50 (A-431): > 100 µM
- IC50 (MCF7): 8.61 µM
- IC50 (DLD-1): 16.3 µM
